We go through one substance from patent publication US20240293483A1, “PROBIOTIC COMPOSITION FOR THE TREATMENT OF INCREASED INTESTINAL PERMEABILITY” (AB-BIOTICS, S.A., priority 2021, published 2024).

Data set [1] is described as follows: Stability of the strain in final product (plate counting of cfus, Zone II storage). The format is physicochemical. The conditions noted are these: 25° C., 60% RH. Here is the method:
The product was packaged in glass amber bottles and stored under Zone II conditions (25° C., 60% Relative Humidity (RH)). […] Results were expressed in LOG (cfus). Trend line was obtained and predicted cfus at 12 months were estimated. Fold and log reduction comparing cfus between 0 and 12 months were calculated.

Data set [2] relates to polyP. Nature of the data set: Polyphosphate (polyP) production assay: hypochlorite extraction from cells, DAPI fluorescence quantification. On the procedure: For polyP production assay, malic enzyme induction (MEI) medium containing (per liter, w/v) 0.5% yeast extract, 0.5% tryptone, 0.4% K2HPO4, 0.5% KH2PO4, 0.02% MgSO4·7H2O, 0.005% MnSO4, 1 ml of Tween 80, 0.05% cysteine, and 0.5% glucose was used (Alcántara et al. 2014). The strains unable to grow in MEI were grown in MRScys. Cultures were inoculated at OD (595 nm) 0.1 and each strain was grown under the conditions indicated above. Growth was monitored by measuring OD for 16 h.
PolyP was isolated from cells by its resistance to hydrolysis with sodium hypochlorite as previously described (Alcántara et al. 2014). Cells were harvested by centrifugation and lysed in 1 ml of 5% sodium hypochlorite with gentle agitation for 45 min at room temperature. Insoluble material was pelleted by centrifugation at 16,000 g for 5 min at 4° C. and washed twice with 1 ml of 1.5 M NaCl plus 1 mM EDTA at 16,000 g for 5 min at 4° C. PolyP was extracted from the pellets with two consecutive washes with 1 ml of water and a centrifugation step at 16,000 g for 5 min at 4° C. between them. PolyP in the pooled water extracts was precipitated by adding 0.1 M NaCl and 1 volume of ethanol, followed by incubation on ice for 1 h. After centrifugation at 16,000 g for 10 min, the polyP pellet was resuspended in 50 μL of water.
A standard curve relating phosphate amount to fluorescence intensity was built to quantify the extracted polyP from the strains. As a first step, serial dilutions of a sample of polyP isolated from the polyphosphate-producer control strain Lactiplantibacillus plantarum strain WCFS1 (Alcántara et al. 2014) were prepared. Second, the dilutions were hydrolyzed with a volume of 2 M HCl, incubated at 95° C. for 15 min to release phosphate and then neutralized by adding […] of 2 M NaOH. Third, the released phosphate from each dilution was quantified with BIOMOL Green Kit (Enzo Life Sciences) as recommended by the manufacturer. In parallel, the released phosphate from each dilution was dyed using 4′,6-diamidino-2-phenylindole (DAPI) at a final concentration of 10 μM in 50 mM Tris-HCl pH 7.5, 50 mM NaCl buffer and fluorescence was measured with an excitation wavelength of 415 nm and emission at 550 nm in a fluorimeter. Finally, a standard curve was built with phosphate values and the corresponding fluorescence values obtained.
Once the standard curve is obtained, polyP amounts from the samples can be quantified according to fluorescence values, without the need of using BIOMOL Green kit. Therefore, the quantification of polyP from the strain samples was indirectly measured by DAPI fluorescence using the standard curve. Firstly, the extracted polyP was measured by fluorescence using DAPI at a final concentration of 10 μM in 50 mM Tris-HCl pH 7.5, 50 mM NaCl buffer with an excitation wavelength of 415 nm and emission at 550 nm in a fluorimeter. Then, the amount of polyP was calculated as nmol of phosphate by means of the standard curve. At least three biological replicates were performed.
B. longum CECT 7894 was grown in medium MEI without glucose supplemented with i) breast milk (1% v/v); ii) LNT (1% w/v); iii) polyamines, in quantities found in breast milk: 70.0, 424.2 and 610.0 […] of putrescine, spermidine and spermine, respectively, and glucose (0.5% w/v); and iv) glucose (0.5% w/v) as positive control. Growth (OD550) and polyP production were determined after 6 and 16 h of incubation.

For a further data set, the system named is Occludin. Nature of the data set: Expression of tight junction genes by qPCR: occludin. The format is cell-based. The settings on record: Caco-2, 16 h, high-polyP vs low-polyP supernatant. Here is the method:
(§1) Caco-2 cells were exposed for 16 h to supernatants of B. longum CECT 7894 grown in MEI and LP media. Then, cells were recovered, and RNA extracted with TRIZOL reagent. cDNA was obtained from RNA using SuperScript VILO cDNA synthesis kit. Quantitative PCR (qPCR) reactions were performed with SYBR Green in the conditions indicated by manufacturer. Expression of tight junction proteins Zonula ocludens-1 (ZO1), Junctional adhesion protein-1 (JAM1) and occluding was quantified. Expression of 18S rRNA and GADPH genes were used for normalization.

In the next data set the test system is Zonula ocludens-1 (ZO1). The experiment in a line: Expression of tight junction genes by qPCR: ZO1. Format: cell-based. The conditions noted are these: Caco-2, 16 h, high-polyP vs low-polyP supernatant. Here is the method: as §1
For data set [3], the system named is polyP. The experiment in a line: PolyP amount in culture supernatants (extracellular). The conditions noted are these: 16 h. Here is the method: B. longum CECT 7894 was grown in MEI medium and Low Phosphate (LP) medium. The last medium has the same composition as MEI but without the addition of polyP precursors (K2HPO4 and KH2PO4), thus the strain cannot produce high amounts of polyP. After 16 h growth cultures were centrifuged and supernatants collected, filtered, and adjusted to neutral pH. PolyP amounts were measured as described in EXAMPLE 1.

The subject of the next data set is HSP27. Nature of the data set: HSP27 production by Western blot. Format: cell-based. The conditions noted are these: Caco-2, 16 h, high-polyP supernatant (MEI) vs low-polyP supernatant (LP); normalized to β-actin. On the procedure: The production of HSP27 was studied in Caco-2 intestinal epithelial cells in confluence by Western blot assay as described by Alcántara et al., 2018 with some modifications. Bacterial supernatants were added to the cell cultures and incubation proceeded for 16 h. MEI and LP media were used as controls. To recover HSP27, cells were lysed with […] and boiled for 5 min. Proteins were separated in SDS-PAGE gel and then transferred to a nylon membrane (blot). The blots were incubated with a rabbit polyclonal anti-HSP27 serum or with a mouse monoclonal anti-β-actin antibody (protein used for normalization). After washing, secondary antibodies peroxidase-conjugated anti-rabbit IgG and anti-mouse IgG, respectively, were used. Blots images were captured, and proteins were quantified in an Imagin 680 system.

Another data set has as its system Caco-2 cells monolayer. The experiment in a line: Barrier integrity (TEER) and permeability (Papp of Lucifer Yellow) of Caco-2 monolayer. The format is cell-based. The settings on record: Caco-2, 72 h apical exposure to high-polyP supernatant (MEI culture) vs low-polyP supernatant and controls. On the procedure:
Integrity of Caco-2 cells monolayer was evaluated by measuring transepithelial electrical resistance (TEER) and permeability by the apparent permeability coefficients (Papp) of the paracellular transport marker Lucifer Yellow.
Caco-2 cells were seed in porous membrane inserts with apical (upper) and basolateral (lower) compartments. Medium Essential Medium Eagle (MEM) was added to both compartments. Cells were treated with supernatants of B. longum CECT 7894 grown in MEI and LP media. Additional cells were treated with MEM, non-fermented MEI and LP media and used as controls.
After 72 h of treatment, TEER and permeability were determined. TEER was measured with a Millicell®-ERS voltammeter. For the permeability assay, Lucifer Yellow was added to the apical compartment. At 15, 30, 45, 60, 90 and 120 min, aliquots were taken from the basolateral compartment and the fluorescence of the Lucifer Yellow transported was measured with a fluorescence microplate reader at excitation/emission wavelengths of 485/520 nm.

Data set [4] relates to Junctional adhesion protein-1 (JAM1). Nature of the data set: Expression of tight junction genes by qPCR: JAM1. The settings on record: Caco-2, 16 h, high-polyP vs low-polyP supernatant. Format: cell-based. Here is the method: as §1
Data set [5] deals with dextran sulfate sodium (DSS)-induced colitis. The conditions noted are these: mice, combined with infliximab; cited from earlier work.
Data set [6] relates to Caco-2 intestinal epithelial cells. Nature of the data set: Adhesion to the intestinal epithelium in vitro. The format is cell-based. The settings on record: Caco-2 monolayers, MOI 1:5, 1 h at 37° C., % of LOG cfu/mL. Here is the method:
Adhesion to the intestinal epithelium was studied in vitro using Caco-2 intestinal epithelial cells. Bacterial suspensions were added to Caco-2 monolayers (Multiplicity of infection (MOI) 1:5 cells to probiotic) and to wells without Caco-2 cells as controls. After 1 h of incubation at 37° C., medium was removed, cells were detached, and suspensions recovered. Bacteria were enumerated in the obtained suspension by serial dilutions and plate count. Bacteria in the medium of the control wells were also quantified. B. longum subsp. longum ATCC 15707 was used as quality control with a known adhesion percentage of 47-55.

As to “Bifidobacterium longum subsp. longum KABP-042 (CECT 7894)”, in data set [1] (final product in sunflower oil, trend line from 0-6 months), the “LOG (cfus) estimated at 12 months” value was 9.01 LOG (cfus). Besides, in data set [1] (final product, 0 vs 12 months), the “LOG loss over 12 months” value is reported as around 0.5 LOG. Besides, the “times more polyP than B. scardovii BAA-773” value in the data set with polyP [2] (6 h) was 140 times. For the same substance, the “times more polyP than L. plantarum WCFS1” value in the data set on polyP [2] (6 h values (12.7 vs 230.9 nmol)) worked out at 18 times. Besides, in the data set on polyP [2] (MEI + polyamines (putrescine, spermidine, spermine) + glucose 0.5%, 6 h), the “PolyP 6 h, Polyamines” value was determined as 111.0 nmol. Moreover, in the data set with polyP [2] (MEI + polyamines + glucose 0.5%, 16 h), the “PolyP 16 h, Polyamines” value came to 48.6 nmol. Further, the “PolyP 6 h” value in the data set on polyP [2] (MEI or MRScys, inoculated at OD 0.1, 6 h of growth, nmol of phosphate) came to 230.9 nmol. In addition, in the data set on polyP [2] (MEI or MRScys, inoculated at OD 0.1, 16 h of growth, nmol of phosphate), the “PolyP 16 h” value is given as 258.3 nmol. Moreover, in the data set with polyP [2] (MEI with glucose 0.5%, 6 h), the “PolyP 6 h, Control (glucose)” value came to 110.2 nmol. Also, the “PolyP 16 h, Control (glucose)” value in the data set on polyP [2] (MEI with glucose 0.5%, 16 h) was determined as 70.2 nmol. In the data set with polyP [2] (MEI without glucose + LNT 1% w/v, 6 h), the “PolyP 6 h, LNT” value worked out at 117.0 nmol. Moreover, the “PolyP 16 h, LNT” value in the data set with polyP [2] (MEI without glucose + LNT 1% w/v, 16 h) stood at 145.0 nmol. Also, in the data set with polyP [2] (MEI without glucose + breast milk 1% v/v, 6 h), the “PolyP 6 h, Breast milk” value came out at 18.5 nmol. Further, the “PolyP 16 h, Breast milk” value in the data set with polyP [2] (MEI without glucose + breast milk 1% v/v, 16 h) was found to be 2.0 nmol. In addition, the “expression of tight junction protein Occludin” value in the data set on Occludin is “induced”. The “expression of tight junction protein ZO1” value with Zonula ocludens-1 (ZO1) is “induced”. For the same substance, in the data set on polyP [3] (high phosphate (MEI medium)), the “PolyP amount in supernatant, MEI medium” value came out at 2.24 nmol. In addition, the “PolyP amount in supernatant, LP medium” value with polyP [3] (low phosphate (LP medium)) is recorded as 0.22 nmol. The “production of HSP27” value in the data set on HSP27 is recorded as “significantly higher production of HSP27”. In the data set with Caco-2 cells monolayer, the “transepithelial electrical resistance (TEER)” value is given as “higher TEER”. Also, the “expression of tight junction protein JAM1” value in [4] was “induced”. For the same substance, in [5], the “effect on efficacy of infliximab in DSS-induced colitis” value is “improved the efficacy of infliximab”. Besides, the “Adhesion to intestinal epithelium (%)” value in [6] and in [6] (listed as B. longum subsp. longum KABP042 (CECT 7894)) was 70.8% in each case.
